{
  "source": "patent US20230321012A1",
  "about": "(priority 2021, published 2023)",
  "key": {"[1]": {"test_system": "spermidine", "test": "MALDI-FTICR imaging quantitation of PD marker spermidine in whole-body sections of Th-MYCN mice", "assay_type": "in vivo, mouse", "conditions": "for Quantitation of spermidine in the whole-body section: Th-MYCN mice, one value per animal; for spermidine level in tumor, comparison of groups: mouse, in vivo; for Spermidine concentration in tumor, Values / Spermidine concentration in tumor, Average: raw determination, 96 h; for Spermidine concentration in tumor, Values: individual Th-MYCN mice; for Spermidine concentration in tumor, Average: treatment group average; for spermidine in eye: vehicle 9.14 μM", "description": "(§1) The lower limit of detection based on the calibration curve using labeled spermidine was 0.80 μg/g, while for spermine it was 1.10 μg/g."}, "[2]": {"test_system": "spermine", "test": "MALDI-FTICR imaging quantitation of PD marker spermine in whole-body sections of Th-MYCN mice", "assay_type": "in vivo, mouse", "conditions": "for Quantitation of spermine in the whole-body section: Th-MYCN mice, one value per animal; for spermine in lung: group average; for spermine level in tumor, comparison of groups: mouse, in vivo; for Spermine concentration in tumor, Value / Spermine concentration in tumor, Average: raw determination, 96 h; for Spermine concentration in tumor, Value: individual Th-MYCN mice; for Spermine concentration in tumor, Average: treatment group average; for spermine in eye: vehicle 17.6 μM", "description": "as §1"}, "[3]": {"test": "in vivo", "conditions": "BALB/c, mouse, 2.5 mg/kg"}, "[4]": {"test": "AMXT 1501 level in tumor biopsy of a melanoma patient", "conditions": "male, human, in vivo"}, "[5]": {"test": "Water solubility, bioavailability and Biopharmaceutics Classification System class", "assay_type": "physicochemical", "description": "Interim data for the pharmacokinetic (PK) behavior of both agents in human subjects has been generated."}, "[6]": {"test_system": "NCI 60-cell line panel", "conditions": "used up to 5 mM, any cell line tested; cited from earlier work"}},
  "note": "Values joined by “and” are separate entries in the source; they are usually repeats but may differ in a detail not shown here. Equal entries are not always repeated.",
  "data": [
    {"smiles": "CCCCCCCCCCCCCCCC(=O)NCCCC[C@@H](N)C(=O)NCCCNCCCCNCCCN", "note": "[AMXT 1501, D-lys(palmitoyl)-spermine]", "values": [
      {"measurement": "Quantitation of spermidine in the whole-body section", "setting": "[1]; Eye", "result": 3.21, "unit": "µM"},
      {"measurement": "Quantitation of spermidine in the whole-body section", "setting": "[1]; Intestine contents", "result": "6.36 µM and 9.59 µM"},
      {"measurement": "Quantitation of spermidine in the whole-body section", "setting": "[1]; Stomach contents", "result": "2.05 µM and 0.00 µM"},
      {"measurement": "Quantitation of spermidine in the whole-body section", "setting": "[1]; Tumor", "result": 1.32, "unit": "µM"},
      {"measurement": "Quantitation of spermidine in the whole-body section", "setting": "[1]; White fat", "result": 5.26, "unit": "µM"},
      {"measurement": "spermidine level in tumor, comparison of groups", "setting": "[1]", "result": "lowest levels"},
      {"measurement": "Spermidine concentration in tumor, Values", "setting": "[1]", "result": "BLOD and 1.32 μM"},
      {"measurement": "Spermidine concentration in tumor, Average", "setting": "[1]", "result": 1.32, "unit": "µM"},
      {"measurement": "spermidine in eye", "setting": "[1]", "result": 3, "unit": "µM"},
      {"measurement": "Quantitation of spermine in the whole-body section", "setting": "[2]; Eye", "result": "4.19 µM and 5.03 µM"},
      {"measurement": "spermine in lung", "setting": "[2]", "result": "low"},
      {"measurement": "spermine level in tumor, comparison of groups", "setting": "[2]", "result": "lowest levels"},
      {"measurement": "Spermine concentration in tumor, Value", "setting": "[2]", "result": "BLOD"},
      {"measurement": "Spermine concentration in tumor, Average", "setting": "[2]", "result": "BLOD"},
      {"measurement": "spermine in eye", "setting": "[2]", "result": "around 5 μM"},
      {"measurement": "AUC", "setting": "[3]; plasma, sc", "result": 8270, "unit": "ng·h/mL"},
      {"measurement": "AUC(0-inf)", "setting": "[3]; plasma, sc", "result": 8890, "unit": "ng·h/mL"},
      {"measurement": "Cmax", "setting": "[3]; plasma, sc", "result": 978, "unit": "ng/mL"},
      {"measurement": "Kp", "setting": "[3]; tumor and plasma, sc", "result": 15.5},
      {"measurement": "Kp at 72 h", "setting": "[3]; tumor and plasma, sc", "result": 894},
      {"measurement": "Kp", "setting": "[3]; tumor and plasma, subcutaneous", "result": 18},
      {"measurement": "concentration at 72 h", "setting": "[3]; tumor, subcutaneous", "result": "~1000", "unit": "ng/mL"},
      {"measurement": "Kp", "setting": "[4]", "result": 14.6}
    ]},
    {"smiles": "NCCCC(N)(C(=O)O)C(F)F", "note": "(centres unmarked) [DFMO, difluoromethylornithine]", "values": [
      {"measurement": "Quantitation of spermidine in the whole-body section", "setting": "[1]; Brain", "result": 1.86, "unit": "µM"},
      {"measurement": "Quantitation of spermidine in the whole-body section", "setting": "[1]; Brown fat", "result": 3.80, "unit": "µM"},
      {"measurement": "Quantitation of spermidine in the whole-body section", "setting": "[1]; Cardiac blood", "result": 0.00, "unit": "µM"},
      {"measurement": "Quantitation of spermidine in the whole-body section", "setting": "[1]; Eye", "result": "6.11 µM and 5.24 µM"},
      {"measurement": "Quantitation of spermidine in the whole-body section", "setting": "[1]; Intestine contents", "result": "43.17 µM and 5.61 µM"},
      {"measurement": "Quantitation of spermidine in the whole-body section", "setting": "[1]; Intestine wall", "result": 4.56, "unit": "µM"},
      {"measurement": "Quantitation of spermidine in the whole-body section", "setting": "[1]; Kidney", "result": 1.35, "unit": "µM"},
      {"measurement": "Quantitation of spermidine in the whole-body section", "setting": "[1]; Liver", "result": 6.67, "unit": "µM"},
      {"measurement": "Quantitation of spermidine in the whole-body section", "setting": "[1]; Lung", "result": "4.53 µM and 2.64 µM"},
      {"measurement": "Quantitation of spermidine in the whole-body section", "setting": "[1]; Stomach wall", "result": 1.13, "unit": "µM"},
      {"measurement": "Quantitation of spermidine in the whole-body section", "setting": "[1]; Testis", "result": 1.97, "unit": "µM"},
      {"measurement": "Quantitation of spermidine in the whole-body section", "setting": "[1]; Thymus", "result": 6.00, "unit": "µM"},
      {"measurement": "Quantitation of spermidine in the whole-body section", "setting": "[1]; Tumor", "result": 5.39, "unit": "µM"},
      {"measurement": "spermidine level in tumor, comparison of groups", "setting": "[1]", "result": "highest levels"},
      {"measurement": "Spermidine concentration in tumor, Values", "setting": "[1]", "result": "BLOD and 5.39 μM"},
      {"measurement": "Spermidine concentration in tumor, Average", "setting": "[1]", "result": 5.39, "unit": "µM"},
      {"measurement": "spermidine in eye", "setting": "[1]", "result": 6, "unit": "µM"},
      {"measurement": "Quantitation of spermine in the whole-body section", "setting": "[2]; Eye", "result": "16.03 µM and 8.07 µM"},
      {"measurement": "Quantitation of spermine in the whole-body section", "setting": "[2]; Intestine contents", "result": 2.46, "unit": "µM"},
      {"measurement": "Quantitation of spermine in the whole-body section", "setting": "[2]; Intestine wall", "result": 3.44, "unit": "µM"},
      {"measurement": "Quantitation of spermine in the whole-body section", "setting": "[2]; Kidney", "result": 4.69, "unit": "µM"},
      {"measurement": "Quantitation of spermine in the whole-body section", "setting": "[2]; Liver", "result": 2.14, "unit": "µM"},
      {"measurement": "Quantitation of spermine in the whole-body section", "setting": "[2]; Lung", "result": "4.78 µM and 7.91 µM"},
      {"measurement": "Quantitation of spermine in the whole-body section", "setting": "[2]; Myocardium", "result": "BLOQ"},
      {"measurement": "Quantitation of spermine in the whole-body section", "setting": "[2]; Stomach contents", "result": 0.00, "unit": "µM"},
      {"measurement": "Quantitation of spermine in the whole-body section", "setting": "[2]; Stomach wall", "result": "BLOQ"},
      {"measurement": "Quantitation of spermine in the whole-body section", "setting": "[2]; Testis", "result": 7.40, "unit": "µM"},
      {"measurement": "Quantitation of spermine in the whole-body section", "setting": "[2]; Thymas", "result": "BLOQ"},
      {"measurement": "Quantitation of spermine in the whole-body section", "setting": "[2]; Tumor", "result": 6.03, "unit": "µM"},
      {"measurement": "spermine in lung", "setting": "[2]", "result": 6.35, "unit": "µM"},
      {"measurement": "spermine level in tumor, comparison of groups", "setting": "[2]", "result": "highest levels"},
      {"measurement": "Spermine concentration in tumor, Value", "setting": "[2]", "result": "BLOD and 6.03 μM"},
      {"measurement": "Spermine concentration in tumor, Average", "setting": "[2]", "result": 6.03, "unit": "µM"},
      {"measurement": "spermine in eye", "setting": "[2]", "result": 12, "unit": "µM"},
      {"measurement": "water solubility", "setting": "[5]", "result": "high water solubility"},
      {"measurement": "growth inhibitory effect", "setting": "[6]", "result": "no growth inhibitory effect"}
    ]}
  ]
}
